Data set [1] is described as follows: Osmolality of aqueous solutions. Type of data set: physicochemical. The note with it: Lösungen in Wasser mit 300 mg I/ml bei 37°C. The procedure:
(§1) Die Osmolalität und Viskosität beziehen sich auf Lösungen in Wasser mit 300 mg I/ml bei 37°C.

Data set [2] can be described thus: Viscosity of aqueous solutions. It counts as physicochemical. Particulars: Lösungen in Wasser mit 300 mg I/ml bei 37°C. On the procedure: as §1
Data set [3] is described as follows: Solubility. The note with it: read-out: Löslichkeit. It counts as physicochemical.
For data set [4] the following is noted: bei 300 mg I/ml; commercial contrast agents; cited from earlier work.

SMILES strings stand for the structures. Where only a bound is given, the exact number is not on record here.

The compound `CC(=O)N(CCCC(O)CO)c1c(I)c(C(=O)N(C)C)c(I)c(N(CCCC(O)CO)C(C)=O)c1I` (stereo not shown) [IX, 3,5-Bis(N-(4,5-dihydroxypentyl)-acetamido)-2,4,6-triiodbenzoesäure-N,N-dimethylamid] came in with an Osmolalität in data set [1] of 500 mOsmol/kg. Moreover, the Viskosität in data set [2] is reported as 6,3 cps. In addition, the solubility in data set [3] was greater than 1000 mg/mL.

Turning to `CC(=O)Nc1c(I)c(C(=O)N[C@H]2C(O)O[C@H](CO)[C@@H](O)[C@@H]2O)c(I)c(N(C)C(C)=O)c1I` (stereo partly shown) [Metrizamid], the Osmolalitäten in data set [4] is recorded as 485 mOsmol/kg.

For the compound `CNC(=O)c1c(I)c(N(CCC(O)CO)C(C)=O)c(I)c(N(CCC(O)CO)C(C)=O)c1I` (stereo not shown) [VI, 3,5-Bis(N-(3,4-dihydroxybutyl)-acetamido)-2,4,6-triiodbenzoesäure-N-methylamid], the Osmolalität in data set [1] was determined as 545 mOsmol/kg. For the same compound, the Viskosität in data set [2] is reported as 5,3 cps. Moreover, the solubility in data set [3] was greater than 1000 mg/mL.

The compound `CC(=O)N(CCC(O)CO)c1c(I)c(C(=O)N(C)C)c(I)c(N(CCC(O)CO)C(C)=O)c1I` (stereo not shown) [VII, 3,5-Bis(N-(3,4-dihydroxybutyl)-acetamido)-2,4,6-triiodbenzoesäure-N,N-dimethylamid] gave an Osmolalität in data set [1] of 535 mOsmol/kg. In addition, the Viskosität in data set [2] is given as 4,5 cps. In addition, the solubility in data set [3] was greater than 1000 mg/mL.

Turning to `CNC(=O)c1c(I)c(N(CCCC(O)CO)C(C)=O)c(I)c(N(CCCC(O)CO)C(C)=O)c1I` (stereo not shown) [VIII, 3,5-Bis(N-(4,5-dihydroxypentyl)-acetamido)-2,4,6-tri iodbenzoesäure-N-methylamid], the Osmolalität in data set [1] is reported as 330 mOsmol/kg. Moreover, the Viskosität in data set [2] is 7,5 cps. Besides, the solubility in data set [3] was greater than 1000 mg/mL.

In data set [1], `CNC(=O)c1c(I)c(C(=O)NCC(O)CO)c(I)c(N(CCCC(O)CO)C(C)=O)c1I` (stereo not shown) [XIX, 5-(N-(4,5-dihydroxypentyl)-acetamido)-2,4,6-triiod-N-methyl-N'-(2,3-dihydroxypropyl)-isophthaldiamid] showed an Osmolalität of 405 mOsmol/kg. Moreover, in data set [2], the Viskosität is reported as 5,8 cps. For the same compound, in data set [3], the solubility was greater than 1000 mg/mL.

Turning to `CC(=O)N(CCC(O)CO)c1c(I)c(C(=O)N(C)CCN(C)C(=O)c2c(I)c(N(CCC(O)CO)C(C)=O)c(I)c(N(CCC(O)CO)C(C)=O)c2I)c(I)c(N(CCC(O)CO)C(C)=O)c1I` (stereo not shown) [XV], in data set [1], the Osmolalität is recorded as 255 mOsmol/kg. Moreover, the Viskosität in data set [2] was 16,5 cps. The solubility in data set [3] is greater than 1000 mg/mL.

The values are drawn from patent publication EP0530343B1, “WATER SOLUBLE, NON-IONIC X-RAY CONTRASTING AGENTS AND PROCESS FOR PRODUCING THE SAME” (Dr. Franz Köhler Chemie GmbH, priority 1991, dated 1992).
